Blank lines part the entries; values can stand above or below the compound they belong to.
Assays:
Type in all cases: physicochemical
[1] = Dispersion in aqueous 0.4% Carbopol solution (electrode gel solution for iontophoresis)
Protocol: Carbopol (Carbopol 940, manufactured by B. F. Goodrich, 0.2 g) was dissolved in 0.3% citrate buffer (pH 6). The pH level of this solution was adjusted at 6 with sodium hydroxide to bring the total amount of the solution to 50 g, and a solution of 0.4% Carbopol (hereafter referred to as an "aqueous 0.4% Carbopol solution") was obtained. The CoQ10-surfactant composite (CoQ10-HydroS, 5 g) obtained in Production Example 14 was dispersed in 50 g of an aqueous 0.4% Carbopol solution with the use of an agitation blade, and a clear homogeneous solution was obtained (hereafter referred to as an "aqueous 0.4% Carbopol solution containing CoQ10-HydroS").
In this case, CoQ10 remained suspended in the solution. […] Thus, CoQ10, which is a low-solubility, nutritional factor, was prepared in the form of a CoQ10-surfactant composite (CoQ10-HydroS), and an aqueous solution for an electrode gel containing a nutritional factor for iontophoresis homogeneously dispersed/dissolved in water was obtained.

[2] = Long-term stability (2-year) at room temperature, browning; settings: stored at room temperature for 2 years
From the text: Long-term stability (2-year) was inspected at room temerature using S/O VC·PMg obtained in Production Example 5. A non-S/O VC·PMg solution was used as a positive control, and a dispersion medium used for S/O preparation was used as a negative control.
The photograph shown in Fig. 6 was stored at room temperature for 2 years.

[3] = Dispersion in olive oil together with vitamin E (VE)
From the text: The VC·PMg-surfactant composite (VC·PMg-LipoS, 5g) obtained in Production Example 12 and 0.5 g of vitamin E (VE) were dispersed in 1 kg of olive oil with the use of an agitation blade, and a clear homogeneous solution was obtained. This homogeneous solution was subjected to plastic filling with the use of a rotary soft capsule filling machine in constant amounts of 0.4 g, and soft capsules containing VC·PMg and VE with high content uniformity were obtained. Soft capsules could be produced in a twist-off form as well as in a general oval form. Similarly, constant amounts of 0.1 g were subjected to plastic filling with the use of a seamless soft capsule filling machine to obtain soft capsules containing VC·PMg and VE with high content uniformity. […] In this case, VC·PMg remained suspended in the solution. […] The formed soft capsules were packaged in easy-peel blister packs composed of a plastic film and an aluminum film. Thus, products that allow soft capsules with a low degree of hardness to be easily removed and are clean and easy to carry were obtained. Soft capsules were also packaged in press-through blister packs.

appearance of the dispersion ([1]; dispersed in 50 g of aqueous 0.4% Carbopol solution (pH 6)): a clear solution was not obtained | appearance when allowed to stand ([1]; in 50 g of aqueous 0.4% Carbopol solution containing 4.5 g of SLS, allowed to stand): a precipitate was observed
Compound: COC1=C(OC)C(=O)C(C/C=C(\C)CC/C=C(\C)CC/C=C(\C)CC/C=C(\C)CC/C=C(\C)CC/C=C(\C)CC/C=C(\C)CC/C=C(\C)CC/C=C(\C)CCC=C(C)C)=C(C)C1=O [CoQ10, ubiquinone]

browning [2]: browned with the elapse of time
Compound: O=C1O[C@H]([C@@H](O)CO)C([O-])=C1OP(=O)([O-])[O-].O=C1O[C@H]([C@@H](O)CO)C([O-])=C1OP(=O)([O-])[O-].[Mg+2].[Mg+2].[Mg+2] [VC·PMg solution, magnesium ascorbyl phosphate]

appearance of the dispersion ([3]; dispersed with 0.5 g VE in 1 kg of olive oil): a clear solution was not obtained | appearance when allowed to stand ([3]; with 0.5 g VE in 1 kg of olive oil containing 4.5 g ER-290, allowed to stand): a precipitate was observed
Compound: O=C1O[C@H]([C@@H](O)CO)C([O-])=C1OP(=O)([O-])[O-].O=C1O[C@H]([C@@H](O)CO)C([O-])=C1OP(=O)([O-])[O-].[Mg+2].[Mg+2].[Mg+2] [VC·PMg, magnesium ascorbyl phosphate]
